Results as given in paper PMC10568017, “A quest for the stereo-electronic requirements for selective agonism for the neurotrophin receptors TrkA and TrkB in 17-spirocyclic-dehydroepiandrosterone derivatives” (Frontiers in Molecular Neuroscience, 2023).

How the values were obtained:
[1] = murine models; ref Bennett et al., 2016; Tsika et al., 2021; cited from earlier work
[2] = system: NIH-3T3 TrkB-expressing cell line; assay: CellTox Green cytotoxicity assay in NIH-3T3 cells stable transfected with TrkB under serum deprivation; assay type: cell-based; conditions: compound 1 μM, 24 h, after 24 h serum starvation; BDNF 500 ng/mL as control
Procedure: (§1) We tested compounds on three cellular systems, primary cortical astrocytes from 2-day-old mice (as a natively TrkB-expressing neuronal population), and NIH-3T3 fibroblasts stable transfected with TrkB and NIH-3T3 naïve cells. Cells were grown with high-glucose DMEM medium supplemented with 10% fetal bovine serum (FBS), 100 μg/mL streptomycin, and 100 units/mL penicillin at 37°C in a humidified 5% CO2 atmosphere. Phosphorylation results presented here are in primary astrocytes, and cell toxicity assay results are in NIH-3T3 stable transfected cells with TrkB.
NIH-3T3 stable transfected cells with TrkB were plated in 96-well plates at a density of 10,000 cells/well, before carrying out serum starvation for 24 h. Cells were then treated for 24 h with either BDNF at 500 ng/mL (control) or the compounds at 1 μM.
For the cell toxicity assay, we used CellTox™ Green Dye (2,000 × , Promega) for the visualization of dead cells and Hoechst 33,342 solution (10,000 × ) for total cells. A ZEISS Axio Vert.A1 microscope was used for image capture, and the ImageJ software (https://imagej.nih.gov/ij/) was used for analysis. The number of CellTox positive cells was normalized against the total number of cells observed in each image.
The NIH-3T3 TrkB cell line, which is stable and transfected to specifically express the TrkB receptor, was used for the screening of the new compounds for their ability to protect cells from serum deprivation-induced apoptosis through the activation of the TrkB receptor. Cell death was induced by serum deprivation for 24 h and then BDNF (500 ng/mL), the native neurotrophin ligand of the TrkB receptor, or compounds ENT-A007, ENT-A009, ENTA025, ENT-A026, ENT-A033, ENT-A034, ENT-A035, ENT-A036, ENT-A037, ENT-A046, ENT-A047, ENT-A055, and ENT-A056 (1 μM) were added to the media for 24 h.

TrkB = target: T1, TrkB (Mus musculus, UniProt P15209); assay: TrkB phosphorylation assay in primary astrocytes (Western blot); assay type: cell-based; conditions: compound 1 μM, 20 min, after 6 h serum starvation, BDNF 500 ng/mL as control
T1 construct: primary cortical astrocytes from 2-day-old mice (as a natively TrkB-expressing neuronal population); endogenous in cells; host or cells: primary cortical astrocytes from C57B/6 mouse pups (P2)
T1 sequence (P15209 32-821): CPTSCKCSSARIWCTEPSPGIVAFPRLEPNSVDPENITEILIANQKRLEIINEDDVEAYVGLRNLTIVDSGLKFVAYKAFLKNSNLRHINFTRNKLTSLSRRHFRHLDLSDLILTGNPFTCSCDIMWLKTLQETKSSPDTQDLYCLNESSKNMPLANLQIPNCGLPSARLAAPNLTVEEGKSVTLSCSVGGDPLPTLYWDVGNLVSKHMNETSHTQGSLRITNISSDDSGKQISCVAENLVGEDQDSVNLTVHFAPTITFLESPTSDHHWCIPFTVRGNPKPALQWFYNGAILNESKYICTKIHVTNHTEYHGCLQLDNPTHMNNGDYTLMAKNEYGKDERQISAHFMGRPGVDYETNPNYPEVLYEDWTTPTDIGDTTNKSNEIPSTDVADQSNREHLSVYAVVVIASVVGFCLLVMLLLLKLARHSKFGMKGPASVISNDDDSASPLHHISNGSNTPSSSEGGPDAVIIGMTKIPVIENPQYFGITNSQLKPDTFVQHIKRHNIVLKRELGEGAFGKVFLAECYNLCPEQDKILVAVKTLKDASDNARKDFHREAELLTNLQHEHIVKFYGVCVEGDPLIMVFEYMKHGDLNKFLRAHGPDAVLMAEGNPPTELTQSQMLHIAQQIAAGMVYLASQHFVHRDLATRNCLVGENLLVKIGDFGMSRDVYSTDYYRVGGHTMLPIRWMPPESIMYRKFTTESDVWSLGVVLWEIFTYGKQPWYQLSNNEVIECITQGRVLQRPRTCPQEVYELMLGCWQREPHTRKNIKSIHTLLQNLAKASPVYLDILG
Procedure: as §1
Cells were plated in 12 well plates, at a density of 100,000 cells per well, with 6 h of serum deprivation carried out on the following day. To assess the effect of compounds on TrkB phosphorylation, 20-min treatments were applied, using either BDNF at 500 ng/mL (Peprotech 450-02) (positive control) or compounds at 1 μM.
Cell lysis for 10 min was carried out on ice using the Pierce IP Lysis Buffer by Thermo Scientific and a phospho-protease inhibitor cocktail by Millipore. After adding loading buffer (5 × Laemni), 25 μg from each protein sample were incubated for 5 min at 95°C and subjected to SDS-PAGE. Proteins were transferred to a nitrocellulose membrane at 350 mA for 2 h. Membrane blocking was performed using 5% bovine serum albumin (BSA) at room temperature for 1 h, before adding the primary antibodies to the blocking solution at 4°C overnight. HRP-conjugated secondary antibodies were used for the detection of chemiluminescence with ECL solution. Primary antibodies: Phospho-TrkB (Tyr816) Millipore # ABN1381, and Anti-TrkB Abcam #ab33655.
Mixed glial cultures were isolated from the cortex of C57B/6 pups at post-natal day 2 (P2). Cells were plated in a medium containing high-glucose DMEM, 200 U/mL penicillin, 200 μg/mL streptomycin, and 10% fetal bovine serum (FBS). When cells reach 100% confluency (7–8 days), the anti-mitotic agent Ara-C was added in the media at a final concentration of 10 μM, for 3 to 4 days to target the highly proliferative microglial cells. Ara-C was removed, and primary astrocytes (97% purity) were cultured at 5% CO2 and 37°C.
Cells were plated at 70–80% confluency. The next day, they were deprived of serum for 6 h and subsequently treated with 500 ng/mL BDNF or 1 μM of compounds for 20 min. Cells were then lysed in Pierce™ IP Lysis Buffer (87788, Thermo Fischer Scientific, Rockford, USA), containing proteases (539138, Calbiochem, Darmstadt, Germany), and phosphatase inhibitors (524629, Calbiochem, Darmstadt, Germany). Lysates were then suspended in an SDS loading buffer and subjected to Western blot against phosphorylated TrkB (1:1,000, ABN1381, Sigma-Aldrich, St. Louis, MO, USA) and total TrkB (1:1,000, 07-225-I, Sigma-Aldrich, St. Louis, MO, USA).

CYP2C9 = target: T2, CYP2C9 (Homo sapiens, UniProt P11712); assay: Isozyme-specific CYP450 inhibition, CYP2C9; assay type: in vitro ADME; conditions: 1 μM, 60 min, recombinant human CYP450 (Baculosomes)
T2 construct: purchased Thermo Fisher Scientific; host or cells: Baculosomes
T2 sequence (P11712 whole entry): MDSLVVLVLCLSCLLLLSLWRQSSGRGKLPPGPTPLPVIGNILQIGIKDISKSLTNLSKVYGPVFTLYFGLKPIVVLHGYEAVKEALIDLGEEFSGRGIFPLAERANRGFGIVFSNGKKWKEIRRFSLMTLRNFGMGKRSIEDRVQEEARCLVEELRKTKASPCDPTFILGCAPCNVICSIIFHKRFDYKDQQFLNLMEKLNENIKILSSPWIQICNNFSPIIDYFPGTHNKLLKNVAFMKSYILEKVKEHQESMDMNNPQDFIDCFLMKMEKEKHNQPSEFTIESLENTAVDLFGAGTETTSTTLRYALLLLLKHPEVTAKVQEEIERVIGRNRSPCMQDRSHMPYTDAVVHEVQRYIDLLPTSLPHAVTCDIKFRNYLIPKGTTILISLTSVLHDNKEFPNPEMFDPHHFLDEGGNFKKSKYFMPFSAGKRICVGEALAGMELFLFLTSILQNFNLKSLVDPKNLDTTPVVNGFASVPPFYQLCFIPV
Procedure: Human cytochrome P450 (CYP450) isoenzymes were expressed in Baculosomes®, purchased from Thermo Fisher Scientific (Waltham, MA, USA). All reagents were handled and prepared according to the manufacturer's protocol. Test compounds were assessed at 1 μM for their effects on CYP1A2, CYP2A6, CYP2C9, CYP2C19, CYP2D6, and CYP3A4. Approximately 1 μM was selected based on our ADMET standard operating procedures and protocols also published previously (Rogdakis et al., [2022]; Yilmaz et al., [2022]). CYP450-enzymatic activity was determined based on the kinetic model for each CYP450 isoform (Cohen et al., [2003]; Veith et al., [2009]). Reactions took place in triplicates at 20°C. For this, NADP^+ (10 mM in 100 mM potassium phosphate, pH 8.0) was converted into NADPH by the regeneration system present (glucose-6-phosphate at 333 mM and glucose-6-phosphate-dehydrogenase at 30 U/mL in 100 mM potassium phosphate, pH 8.0). Following the addition of the fluorescent substrate, signal monitoring over time took place immediately (<2 min) at suitable excitation and emission wavelengths (Agilent BioTek Lionheart FX). CYP450 inhibition (%) was determined based on the reaction rates (fluorescence intensity changes per unit time). In total, n = 60 measurements […] were acquired (t = 60 min).
% Inhibition=(1-X/A)×100%
X is the rate observed in the presence of the test compound.
A is the rate observed in the presence of the negative (solvent, DMSO) control.

PC12 cells = assay: CellTox assay, survival of PC12 cells under serum deprivation; assay type: cell-based; conditions: compound 500 nM, 24 h, after 4 h serum starvation; NGF 100 ng/mL as control (Figure 9)
Procedure: (§2) PC12 cells were obtained from LGC Promochem and cultured under specified conditions. Cells were grown in DMEM medium (Thermo Fischer Scientific, cat# 10566016) containing 10% horse serum (Thermo Fischer Scientific, cat# 16050122), 5% fetal bovine serum (Thermo Fischer Scientific, cat# 10270106), 100 units/mL penicillin, and 0.1 mg/mL streptomycin (Thermo Fischer Scientific, cat# 15140122) at 5% CO2 and 37°C. Cells were used between passages 5 and 20.
CellTox assay (G8742, Promega, Leiden, Belgium) was used to assess the survival of PC12 cells under serum deprivation conditions. PC12 cells were plated in 96-well plates, starved from serum for 4 h, and subsequently treated with NGF (100 ng/mL) or compound (500 nM) for 24 h. CellTox assay reagents and Hoescht (1:10,000, H3570, Invitrogen, Massachusetts, USA) were then added to each well for 30 min, and then, cells were imaged with a Zeiss AXIO Vert A1 fluorescent microscope. CellTox positive cells were normalized to the total number of cells for each image.
Initially, we tested compounds ENT-A002, ENT-A007, ENT-A009, ENTA025, ENT-A026, ENT-A033, ENT-A034, ENT-A035, ENT-A036, ENT-A037, ENT-A046, ENT-A047, ENT-A055, and ENT-A056 for their ability to protect PC12 cells from serum deprivation-induced cell death as well as for their ability to activate TrkA downstream pro-survival signaling kinases Akt and Erk1/2 (Figures 9A–C). We opted to employ PC12 cells, which express receptors TrkA and p75 and have been routinely used for investigating NGF-TrkA signaling. PC12 cells were subjected to a period of nutrient deprivation (without fetal bovine serum and horse serum in their culture medium) for 4 h. Following this, NGF (100 ng/mL) or one of the compounds (500 nM or 1 μM) was administered and allowed to interact with the cells for 24 h. Following that, CellTox and Hoescht dyes were added and cells were imaged to assess cell death. Control cases involved cells cultured in full medium (serum), cells under starvation conditions (serum-free), and cells under starvation conditions treated with DMSO (SF+DMSO).

TrkA = target: T3, TrkA (Rattus norvegicus, UniProt P35739); assay: TrkA phosphorylation in PC12 cells (immunoprecipitation / Western blot); assay type: cell-based; conditions: compound 500 nM, 30 min, NGF 100 ng/mL as control
T3 construct: PC12 cells, which express receptors TrkA and p75; endogenous in cells; host or cells: PC12 cells
T3 sequence (P35739 33-799): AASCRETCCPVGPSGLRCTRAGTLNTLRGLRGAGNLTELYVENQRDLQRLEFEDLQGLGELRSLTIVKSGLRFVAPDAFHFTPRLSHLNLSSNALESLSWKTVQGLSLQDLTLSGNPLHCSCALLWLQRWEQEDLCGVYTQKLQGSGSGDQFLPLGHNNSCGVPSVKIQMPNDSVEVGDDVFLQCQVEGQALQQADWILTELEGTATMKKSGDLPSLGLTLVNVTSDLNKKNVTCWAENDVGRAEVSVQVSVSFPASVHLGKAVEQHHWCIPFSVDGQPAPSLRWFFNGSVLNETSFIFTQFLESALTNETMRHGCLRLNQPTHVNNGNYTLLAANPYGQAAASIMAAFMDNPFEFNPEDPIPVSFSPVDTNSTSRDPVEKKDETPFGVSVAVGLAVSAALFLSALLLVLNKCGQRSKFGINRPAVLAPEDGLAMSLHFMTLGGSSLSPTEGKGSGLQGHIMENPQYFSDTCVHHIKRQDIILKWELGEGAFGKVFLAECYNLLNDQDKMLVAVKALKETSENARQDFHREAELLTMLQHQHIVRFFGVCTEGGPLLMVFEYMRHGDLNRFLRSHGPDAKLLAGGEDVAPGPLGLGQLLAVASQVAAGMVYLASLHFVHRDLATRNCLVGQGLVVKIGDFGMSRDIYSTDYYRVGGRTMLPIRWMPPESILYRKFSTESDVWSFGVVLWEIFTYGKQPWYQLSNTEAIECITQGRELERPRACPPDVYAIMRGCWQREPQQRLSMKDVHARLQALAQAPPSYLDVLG
Procedure: as §2
For immunoprecipitation experiments, PC12 cells were used when they were at 70–80% confluent. Cells were starved from serum for 4 h and subsequently treated with 100 ng/mL NGF (Alomone Labs, cat# N-100) or 500 nM of each compound for 30 min. Cells were then lysed in Pierce™ IP Lysis Buffer (Thermo Fischer Scientific, cat# 87787) containing proteases (Sigma-Aldrich, cat# 539131) and phosphatase inhibitors (Millipore, cat# 524629). Lysates were then immunoprecipitated overnight at 4°C with TrkA antibody (1:100, Millipore, cat# 06-574) followed by 4 h incubation with protein G-plus agarose beads (Santa Cruz Biotechnology, cat# sc-2002). Beads were then collected, washed three times with lysis buffer, resuspended in SDS loading buffer, and subjected to Western blot against phosphorylated Tyrosine (1:1000, R&D systems, cat# BAM1676). […]

Erk1/2 = Erk1/2 phosphorylation in PC12 cells (Western blot); assay type: cell-based; conditions: compound 500 nM, 30 min, NGF 100 ng/mL as control
[3] = Metabolic stability in pooled human liver microsomes; assay type: in vitro ADME; conditions: 1 μM
Procedure: For metabolic stability assessment, pooled human liver microsomes were employed at 0.5 mg/mL. Incubation conditions were optimized to ensure linear metabolite formation with respect to protein concentration and reaction time. All test compounds were assessed at 1 μM based on our ADMET standard operating procedures and protocols, also published previously (1 μM was selected based on our ADMET standard operating procedures and protocols also published previously) (Rogdakis et al., [2022]; Yilmaz et al., [2022]). Approximately 1 mM of NADPH served as a cofactor. Reactions took place in triplicates at 37°C. Negative and positive controls (low vs. rapid clearance) were included for low vs. rapid clearance. After 60 min, reactions were terminated.
Parent structure loss is classified as very slow (<5%), slow (5–19%), moderate (20–50%), fast (50–80%), or very fast (>80%). Such categories have been defined according to set criteria, namely, high metabolism (t1/2 value of <30 min), moderate metabolism (30 min <t1/2 value of <60 min), and low metabolism (t1/2 value of >60 min) (EMA, [2012], [2013]; FDA, [2020]).

| Structure (SMILES) | elimination constant (Kel) [1] | protection of NIH-3T3-TrkB cells from serum deprivation-induced cell death (CellTox) [2] | phosphorylation levels of the TrkB receptor (TrkB) | inhibition for CYP2C9 (CYP2C9) | protection of PC12 cells from serum deprivation-induced cell death (CellTox) (PC12 cells) | TrkA phosphorylation (TrkA) | Erk1/2 phosphorylation (Erk1/2) | residual of time zero ([3]; pooled human liver microsomes 0.5 mg/mL, t = 60 min, NADPH) | parent structure loss (depletion) class ([3]; pooled human liver microsomes, 60 min) |
| --- | --- | --- | --- | --- | --- | --- | --- | --- | --- |
| CC12CCC(O)CC1=CCC1C2CCC2(C)C1CCC21OC1CO (stereo not shown) [BNN27] | 0.465 h⁻¹ |  |  |  |  |  |  |  |  |
| CCOC(=O)C=CC1=CCC2(CCC3C4CC=C5CC(O)CCC5(C)C4CCC32C)OC1 [ENT-A007, Ethyl (E)-(3S,17R)-3-hydroxy-dihydrospiro[5-androstene-17,2′-pyran]-5′-yl-acrylate] |  | significantly reduce cell death levels compared to the serum-free control, comparable to the BDNF action | only ENT-A009 and ENT-A055 successfully increased phosphorylation levels of the TrkB receptor | moderate-to-strong inhibition |  |  |  |  |  |
| CC12CCC(O)CC1=CCC1C2CCC2(C)C1CCC21CC=C(C=CC#N)CO1 [ENT-A009, (E)-(3S,17R)-3-hydroxy-3′,6′-dihydrospiro[5-androstene-17,2′-pyran]-5′-acrylonitrile] |  | significantly reduce cell death levels compared to the serum-free control, comparable to the BDNF action | successfully increased phosphorylation levels of the TrkB receptor compared to the untreated control | moderate-to-strong inhibition |  |  |  |  |  |
| CC12CCC(O)CC1=CCC1C2CCC2(C)C1CCC21CC=C(CCl)CO1 [ENT-A025, (3S,17R)-5′-(chloromethyl)-3′,6′-dihydrospiro[5-androstene-17,2′-pyran]-3-ol] |  | cannot protect NIH3T3-TrkB cells from serum deprivation |  |  | protect PC12 cells against serum deprivation-induced cell death | strongly induce TrkA and Erk1/2 phosphorylation, comparable to NGF action | strongly induce TrkA and Erk1/2 phosphorylation, comparable to NGF action | 92% | slow (slow (5–19%)) |
